Measurements reported in PubChem BioAssay AID1159564 (GlaxoSmithKline (GSK), 2015).
pIC50: −log10 of the molar value. Calls of active or inactive are those of the source. No rule for the calls is given here.

Test system: L. donovani-infected THP-1 macrophages, intracellular amastigote imaging
Assay: antileishmanial activity in infected THP-1 macrophages – imaging, THP-1 host macrophages, host toxicity (AID 1159564)
[1] = measured here: THP-1 host cell toxicity
[2] = measured here: amastigotes per macrophage

| SMILES | pIC50 | pIC50 [1] | pIC50 [2] | IC50 |
| --- | --- | --- | --- | --- |
| Cc1cc(Oc2cc(Cl)c(Cl)cc2Cl)n2ncnc2n1 | 4.80 | 5.00 | 4.89 | – |
| O=c1[nH]cnc2c([C@@H]3O[C@H](CO)[C@@H](O)[C@H]3O)[nH]nc12 | 5.70 | < 4.30 | 6.40 | – |
| O=C(Nc1cccc(S(=O)(=O)Nc2ccc(Br)cc2)c1)c1ccc([N+](=O)[O-])s1 | 6.00 | 5.00 | 6.10 | – |
| O=C(O)[C@H]1C[C@@H]1c1ccc(-c2ccc(CN(CCc3ccccn3)C(=O)C3CCC3)cc2)cc1 | – | < 4.30 | < 4.30 | > 50 µM (inactive) |
| CCC(=O)Nc1ccccc1C(=O)Nc1ccccn1 | – | < 4.30 | < 4.30 | > 50 µM (inactive) |
| O=C(NCCc1ccccn1)C(c1cn[nH]c1)N1CCN(c2ccc(Cl)c(Cl)c2)CC1 (stereo unspecified) | – | < 4.30 | 4.70 | > 50 µM (inactive) |
| CN(C)S(=O)(=O)c1ccc(-c2cnc(N)c(-c3nc4ccc(F)cc4[nH]3)c2)cc1 | 5.80 | 5.40 | 6.20 | – |
| CNC(=O)C1Cc2ccccc2N1C(=O)COc1cccc(OC)c1 (stereo unspecified) | – | < 4.30 | < 4.30 | > 50 µM (inactive) |
| O=C(C1CCCCC1)N1CCN(c2nnc(-c3ccccc3)c3ccccc23)CC1 | – | 4.30 | 4.70 | > 50 µM (inactive) |
| O=C(Nc1cccc(F)c1)N1CCC(Oc2cccc(-c3cccnc3)c2)CC1 | – | 4.70 | 6.10 | > 50 µM (inactive) |
| COc1ccc(CN2CCCCC2c2nc(-c3cccnc3)no2)cc1 (stereo unspecified) | – | < 4.30 | < 4.30 | > 50 µM (inactive) |
| COc1ccc(-c2csc(NC(=O)c3ccc([N+](=O)[O-])s3)n2)cc1 | 5.40 | < 4.30 | 5.80 | – |
| CCN(CC)S(=O)(=O)c1ccc(C)c(NC(=O)c2cc(Cl)c3c(c2)OCO3)c1 | – | < 4.30 | < 4.30 | > 50 µM (inactive) |
| O=C(NCCc1csc(-c2cccc(F)c2)n1)c1ccco1 | – | < 4.30 | < 4.30 | > 50 µM (inactive) |
| Cc1cc(C)cc(NS(=O)(=O)c2cc(-c3cc(C)[nH]n3)ccc2C)c1 | 5.10 | – | 5.49 | – |
| Clc1ccc(OCCN2CCCCC2c2cccnc2)c(Cl)c1 (stereo unspecified) | – | < 4.30 | 5.30 | > 50 µM (inactive) |
| O=S1N=C(NCCCN(Cc2ccc(F)cc2)c2ccccn2)C(NCc2ccncc2)=N1 (stereo unspecified) | – | 4.60 | 4.60 | > 50 µM (inactive) |
| CCN(CC)c1ncc(C(=O)c2ccc([N+](=O)[O-])o2)s1 | 5.00 | 5.20 | 5.00 | – |
| Cc1ccc(Nc2nc(N)nc(CNC(c3nc4ccccc4[nH]3)C(C)C)n2)cc1 (stereo unspecified) | 5.70 | 4.60 | 5.89 | – |
| O=c1cc(NCCCNCc2cc(C(F)(F)F)cs2)[nH]c2ccccc12 | 4.40 | 4.70 | 4.60 | – |
| N#Cc1cc(-c2ccnc(Nc3cccc(CN4CCOCC4)c3)n2)ccc1NCCN | 5.80 | 5.10 | 6.10 | – |
| CNc1cc(C)nc(C2CN(C(=O)c3n[nH]c4ccccc34)CCO2)c1 (stereo unspecified) | – | < 4.30 | < 4.30 | > 50 µM (inactive) |

| SMILES | pIC50 | pIC50 [1] | pIC50 [2] | IC50 |
| --- | --- | --- | --- | --- |
| O=C(Nc1ccc(-c2nc3ccccc3c(=O)[nH]2)cc1)c1cccs1 | – | < 4.30 | < 4.30 | > 50 µM (inactive) |
| Nc1nc(-c2ccccc2)cc(-c2nc3ncccc3[nH]2)n1 | 5.60 | < 4.30 | 5.60 | – |
| O=C(CN1CCN(c2ccccn2)CC1)Nc1cc(S(=O)(=O)N2CCCCCC2)ccc1Cl | 5.20 | 4.30 | 5.89 | – |
| CC(C)(C)Nc1nc(-c2ccccn2)nc2ccccc12 | 5.80 | 4.80 | 5.89 | – |
| CCCc1nc2nc(N)nc(N)c2cc1CC | 4.40 | < 4.30 | 4.40 | – |
| Cc1cnc(Nc2cc(Cc3ccccc3)nc(NC3CCC(O)CC3)n2)s1 (stereo unspecified) | 7.40 | 7.60 | 7.49 | – |
| CCOc1ccc2nc(NC(=O)c3ccc([N+](=O)[O-])s3)sc2c1 | 5.20 | < 4.30 | 5.30 | – |
| Cc1nc(-c2nc(NCc3ccc(Cl)cc3)c3cccnc3c2O)n[nH]1 | 6.30 | 5.20 | 6.30 | – |
| Cc1cccc(NS(=O)(=O)c2cnc3sc(C)cn3c2=O)c1 | – | < 4.30 | 5.30 | > 50 µM (inactive) |
| CC(C)c1cc(C(=O)N2CCCC(c3cc4ncccc4[nH]3)C2)on1 (stereo unspecified) | – | < 4.30 | < 4.30 | > 50 µM (inactive) |
| O=C(Nc1ccc(Br)cn1)c1ccc(Cn2cnc([N+](=O)[O-])n2)cc1 | – | < 4.30 | < 4.30 | > 50 µM (inactive) |
| c1ccc(-c2nc(NCc3ccco3)c3ccccc3n2)nc1 | 5.60 | 4.49 | 5.60 | – |
| COc1ccc(Nc2nccc(N(C)c3n[nH]c4c(F)cccc34)n2)cc1S(C)(=O)=O | 5.60 | 5.00 | 6.00 | – |
| Cc1ccc(S(C)(=O)=O)cc1Nc1nccc(-c2sc(N)nc2-c2ccccc2)n1 | 5.30 | 4.70 | 5.60 | – |
| O=C(c1cc2cc(Cl)ccc2[nH]1)N1CCCCC1c1cccnc1 (stereo unspecified) | 4.49 | 4.80 | 5.00 | – |
| Cc1cc(=O)n2nc(Oc3ccc(C#N)cc3Cl)sc2n1 | 4.49 | 4.49 | 4.49 | – |
| Cc1cc2nc(CN(C)Cc3ncccc3C)[nH]c2cc1C | 6.20 | 5.10 | 6.30 | – |
| CCNc1cc(-c2ccccn2)nc(Nc2ccccc2)n1 | 6.10 | 4.70 | 6.20 | – |
| O=C(c1ccc(Cl)cc1)c1ccc(OC(=O)N2CCOCC2)cc1 | 5.30 | < 4.30 | 5.70 | – |
| N#Cc1cccc(CN2CCC(c3nc(-c4ccc(C(F)(F)F)nc4)no3)CC2)c1 | – | < 4.30 | < 4.30 | > 50 µM (inactive) |
| Cc1cc2cncn2c(C2CCCCN2C(=O)c2cccs2)n1 (stereo unspecified) | – | < 4.30 | < 4.30 | > 50 µM (inactive) |
| O=c1ccn(-c2ccc([N+](=O)[O-])cc2Cl)c2ccc(F)cc12 | – | < 4.30 | < 4.30 | > 50 µM (inactive) |

| SMILES | pIC50 | pIC50 [1] | pIC50 [2] | IC50 |
| --- | --- | --- | --- | --- |
| O=[N+]([O-])c1cccc(Nc2cncc(-c3ccccc3CO)c2)c1 | – | < 4.30 | < 4.30 | > 50 µM (inactive) |
| O=S(=O)(c1ccccc1C(F)(F)F)N1CCN(Cc2ccc(-n3ccnc3)cc2)CC1 | – | 4.80 | 4.60 | > 50 µM (inactive) |
| C=CCn1nc([N+](=O)[O-])nc1Oc1ccc(Cl)cc1Cl | – | 4.40 | 4.40 | > 50 µM (inactive) |
| Cc1cc(Nc2cc(C3CC3)[nH]n2)nc(N2CCC[C@H]2C(N)=O)n1 | 6.70 | 6.89 | 7.10 | – |
| COc1ccc(S(=O)(=O)Nc2ccccc2OC)cc1NC(=O)CCCc1c[nH]c2ccccc12 | – | < 4.30 | < 4.30 | > 50 µM (inactive) |
| CCCN1CCN(Cc2ccc(S(=O)(=O)Nc3cccc(C)c3)cc2)CC1 | – | < 4.30 | < 4.30 | > 50 µM (inactive) |
| NC(=O)c1ccccc1Nc1nc(NC2CCCCC2)nc2[nH]ccc12 | 4.89 | 5.00 | 4.89 | – |
| O=c1oc2ccccc2n1C1CCN(Cc2ccccc2-c2cccnc2)CC1 | – | 4.89 | 5.20 | > 50 µM (inactive) |
| Cc1ccc2sc(NC(=O)Cn3cnc([N+](=O)[O-])n3)nc2c1 | – | < 4.30 | < 4.30 | > 50 µM (inactive) |
| CCOc1ccccc1C(=O)Nc1nnc(-c2ccc3c(c2)OCO3)s1 | 6.30 | < 4.30 | 6.49 | – |
| O=[N+]([O-])c1ccc(-c2nnn(-c3ccc(Cl)cc3)n2)o1 | – | < 4.30 | < 4.30 | > 50 µM (inactive) |
| O=C(NC(CO)c1ccc(F)cc1)c1ccc(-c2c[nH]c3ncccc23)s1 (stereo unspecified) | 4.60 | 5.00 | 4.70 | – |
| O=C(c1ccccc1)N1CCC(C(=O)N2CCC(Oc3ccccc3Cl)CC2)CC1 | – | < 4.30 | 4.49 | > 50 µM (inactive) |
| COc1ccc2c(Cl)c(C(=O)N3CCC3)sc2c1Cl | – | < 4.30 | < 4.30 | > 50 µM (inactive) |
| CCc1cccc(CC)c1-n1c(SCC(=O)NC(=O)NCc2ccco2)nnc1-c1cccnc1 | – | < 4.30 | < 4.30 | > 50 µM (inactive) |
| O=C(NCC(c1cccnc1)N1CCc2ccccc2C1)C(=O)Nc1cccc(Cl)c1 (stereo unspecified) | – | < 4.30 | < 4.30 | > 50 µM (inactive) |
| O=C(NCc1ccc(Cl)cc1)C1CN(C(=O)c2ccc(F)cc2)CCS1 (stereo unspecified) | – | < 4.30 | < 4.30 | > 50 µM (inactive) |
| Cc1cc(-c2cccc3ccccc23)nc2nc(N)nc(N)c12 | 5.30 | 4.30 | 6.00 | – |
| COc1ccc(C(=O)[C@H]2C[C@@H]2CN(Cc2ccccn2)Cc2ccccn2)cc1 | 5.80 | < 4.30 | 5.89 | – |
| O=C1CN(C(=O)c2cccc(Nc3ncc(-c4ccc5c(c4)OCO5)cn3)c2)CCN1 | 5.30 | 4.20 | 5.70 | – |
